Legend:
[1] = target: T1, HiBit-BRM fusion protein (Homo sapiens, UniProt P51531); experiment: HiBiT-BRM cell-based degradation assay (Nano-Glo HiBiT Lytic Detection, 24 h); settings: stable HeLa cell line expressing HiBiT-BRM; for DC50: read-out: BRM HiBit Degradation IC50
T1 construct: expressed in transfected cells
Procedure, shortened: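 A stable HeLa line expressing HiBiT-BRM was treated for 24 h with compound in a 10-point, 3-fold series (30 μM final top dose). Remaining HiBiT-BRM was read by lytic LgBiT complementation luminescence. % degradation was normalised to DMSO (high control) and 2 μM reference BRM/BRG1 degrader (low control).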

[2] = target: T2, HiBit-BRG1 fusion protein (Homo sapiens, UniProt P51532); experiment: HiBiT-BRG1 cell-based degradation assay (Nano-Glo HiBiT Lytic Detection, 24 h); settings: stable HeLa cell line expressing HiBit-BRG1 and LgBit; for Dmax: read-out: BRG1 HiBit Degradation Maximum (%); for DC50: read-out: BRMG1 HiBit Degradation IC50
T2 construct: expressed in transfected cells
Procedure, shortened: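 HeLa cells stably expressing HiBit-BRG1 and LgBit, treated 24 h with 3-fold dilutions (10 points, duplicate, 30 μM final top dose). Luminescence read after Nano-Glo HiBiT lytic reagent; % degradation scaled between DMSO (high) and 2 μM reference BRM/BRG1 degrader (low control).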

T2 sequence (P51532 whole entry, the tested form may be a part): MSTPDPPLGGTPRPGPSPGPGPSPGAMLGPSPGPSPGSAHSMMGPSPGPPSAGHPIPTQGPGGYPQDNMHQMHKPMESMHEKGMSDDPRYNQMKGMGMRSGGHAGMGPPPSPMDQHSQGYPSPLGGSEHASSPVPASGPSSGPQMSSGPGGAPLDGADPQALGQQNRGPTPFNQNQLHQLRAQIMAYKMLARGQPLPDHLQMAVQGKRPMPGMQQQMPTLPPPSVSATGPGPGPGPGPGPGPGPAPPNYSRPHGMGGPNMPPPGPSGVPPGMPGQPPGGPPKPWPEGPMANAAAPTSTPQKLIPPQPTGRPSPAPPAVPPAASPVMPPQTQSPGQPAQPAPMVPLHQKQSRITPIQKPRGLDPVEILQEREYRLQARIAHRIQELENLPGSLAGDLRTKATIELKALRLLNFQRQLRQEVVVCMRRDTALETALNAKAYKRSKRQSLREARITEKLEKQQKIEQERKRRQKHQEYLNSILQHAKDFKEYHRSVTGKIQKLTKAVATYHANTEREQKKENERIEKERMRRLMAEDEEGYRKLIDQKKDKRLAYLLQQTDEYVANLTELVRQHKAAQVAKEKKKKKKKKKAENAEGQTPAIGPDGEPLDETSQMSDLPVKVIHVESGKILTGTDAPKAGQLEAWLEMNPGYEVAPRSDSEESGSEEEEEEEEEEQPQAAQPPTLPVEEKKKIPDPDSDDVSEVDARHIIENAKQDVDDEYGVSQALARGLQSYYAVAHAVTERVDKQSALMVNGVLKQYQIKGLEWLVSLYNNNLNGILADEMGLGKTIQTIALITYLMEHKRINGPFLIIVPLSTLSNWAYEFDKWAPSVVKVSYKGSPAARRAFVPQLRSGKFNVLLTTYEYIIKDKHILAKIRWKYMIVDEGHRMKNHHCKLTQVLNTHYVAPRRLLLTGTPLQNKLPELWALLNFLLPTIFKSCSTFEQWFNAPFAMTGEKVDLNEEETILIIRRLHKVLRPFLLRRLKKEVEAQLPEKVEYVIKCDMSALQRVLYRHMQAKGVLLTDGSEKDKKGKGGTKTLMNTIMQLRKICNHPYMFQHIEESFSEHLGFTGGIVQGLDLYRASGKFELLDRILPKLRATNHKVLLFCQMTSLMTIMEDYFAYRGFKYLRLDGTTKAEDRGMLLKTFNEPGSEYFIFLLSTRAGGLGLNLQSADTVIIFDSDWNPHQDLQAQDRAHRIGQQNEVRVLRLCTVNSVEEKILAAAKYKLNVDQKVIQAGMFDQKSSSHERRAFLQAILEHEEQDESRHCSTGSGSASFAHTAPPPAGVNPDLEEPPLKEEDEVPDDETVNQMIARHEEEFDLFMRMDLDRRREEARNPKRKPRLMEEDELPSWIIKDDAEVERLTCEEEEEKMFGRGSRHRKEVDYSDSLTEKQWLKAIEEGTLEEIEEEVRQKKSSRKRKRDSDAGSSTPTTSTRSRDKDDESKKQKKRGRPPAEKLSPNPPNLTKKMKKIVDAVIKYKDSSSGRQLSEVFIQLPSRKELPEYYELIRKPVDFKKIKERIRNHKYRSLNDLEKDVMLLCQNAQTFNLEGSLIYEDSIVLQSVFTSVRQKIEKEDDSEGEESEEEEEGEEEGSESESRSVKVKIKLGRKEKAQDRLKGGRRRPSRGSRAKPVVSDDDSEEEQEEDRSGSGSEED
T1 sequence (P51531 whole entry, the tested form may be a part): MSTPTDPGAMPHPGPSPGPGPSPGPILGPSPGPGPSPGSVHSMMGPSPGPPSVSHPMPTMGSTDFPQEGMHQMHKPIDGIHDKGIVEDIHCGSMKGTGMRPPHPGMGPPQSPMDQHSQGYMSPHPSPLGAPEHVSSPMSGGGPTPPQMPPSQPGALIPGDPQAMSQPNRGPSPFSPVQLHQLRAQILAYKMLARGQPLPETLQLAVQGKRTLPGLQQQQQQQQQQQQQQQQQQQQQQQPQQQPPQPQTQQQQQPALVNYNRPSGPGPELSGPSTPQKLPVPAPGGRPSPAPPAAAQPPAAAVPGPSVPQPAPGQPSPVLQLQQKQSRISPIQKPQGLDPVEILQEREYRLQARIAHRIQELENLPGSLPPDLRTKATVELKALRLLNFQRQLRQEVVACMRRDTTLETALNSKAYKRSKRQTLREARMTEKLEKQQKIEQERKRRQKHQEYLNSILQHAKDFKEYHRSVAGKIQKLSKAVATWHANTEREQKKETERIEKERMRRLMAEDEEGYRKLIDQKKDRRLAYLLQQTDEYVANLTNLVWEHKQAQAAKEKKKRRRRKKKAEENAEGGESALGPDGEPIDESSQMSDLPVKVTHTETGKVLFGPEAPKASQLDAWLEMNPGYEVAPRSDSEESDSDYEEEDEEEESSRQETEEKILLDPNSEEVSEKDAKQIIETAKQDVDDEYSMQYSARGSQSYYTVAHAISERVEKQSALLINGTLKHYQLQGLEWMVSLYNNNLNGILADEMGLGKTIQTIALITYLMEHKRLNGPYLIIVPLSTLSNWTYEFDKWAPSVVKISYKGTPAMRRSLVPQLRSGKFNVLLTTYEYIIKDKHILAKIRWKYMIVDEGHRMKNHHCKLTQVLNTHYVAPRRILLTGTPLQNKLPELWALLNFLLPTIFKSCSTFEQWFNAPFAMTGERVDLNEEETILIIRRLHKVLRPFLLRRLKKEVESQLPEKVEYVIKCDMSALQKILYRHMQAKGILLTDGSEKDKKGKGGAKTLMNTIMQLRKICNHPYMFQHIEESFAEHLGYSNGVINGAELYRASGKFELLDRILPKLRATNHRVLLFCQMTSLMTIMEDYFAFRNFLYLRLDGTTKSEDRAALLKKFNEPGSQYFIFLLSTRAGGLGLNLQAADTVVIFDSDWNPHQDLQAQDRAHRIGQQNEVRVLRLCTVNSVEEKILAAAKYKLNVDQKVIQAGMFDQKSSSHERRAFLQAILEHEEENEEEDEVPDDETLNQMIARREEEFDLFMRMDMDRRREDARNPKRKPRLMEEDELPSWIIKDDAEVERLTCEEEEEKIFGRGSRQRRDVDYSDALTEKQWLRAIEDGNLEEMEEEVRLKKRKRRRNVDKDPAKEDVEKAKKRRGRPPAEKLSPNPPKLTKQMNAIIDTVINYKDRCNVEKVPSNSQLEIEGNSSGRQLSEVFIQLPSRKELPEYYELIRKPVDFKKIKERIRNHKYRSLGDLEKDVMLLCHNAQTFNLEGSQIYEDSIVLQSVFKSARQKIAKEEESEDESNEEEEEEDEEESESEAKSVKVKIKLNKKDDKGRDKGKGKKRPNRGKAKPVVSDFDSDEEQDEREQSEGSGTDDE

Compound | BRM HiBit Degradation Maximum (%) [1] | DC50 [1] [µM] | Dmax [2] [%] | DC50 [2] [µM]
Cc1ncsc1-c1ccc([C@H](C)NC(=O)[C@@H]2C[C@@H](O)CN2C(=O)[C@@H](c2cc(-c3ccnc(N4CC[C@H](c5sc6nnc(-c7ccccc7O)cc6c5C)C4)n3)no2)C(C)C)cc1 [Compound 8, (2S,4R)-4-hydroxy-1-((R)-2-(3-(2-((S)-3-(3-(2-hydroxyphenyl)-5-methylthieno[2,3-c]pyridazin-6-yl)pyrrolidin-1-yl)pyrimidin-4-yl)isoxazol-5-yl)-3-methylbutanoyl)-N-((S)-1-(4-(4-methylthiazol-5-yl)phenyl)ethyl)pyrrolidine-2-carboxamide] | A (“A” indicates maximum degradation ≥75%) | > 0.01 | < 50 | > 1
Cc1ncsc1-c1ccc([C@H](C)NC(=O)[C@@H]2C[C@@H](O)CN2C(=O)[C@@H](c2cc(-c3cnc(N4CCC(c5sc6nnc(-c7ccccc7O)cc6c5C)CC4)cn3)no2)C(C)C)cc1 [Compound 28, (2S,4R)-4-hydroxy-1-((R)-2-(3-(5-(4-(3-(2-hydroxyphenyl)-5-methylthieno[2,3-c]pyridazin-6-yl)piperidin-1-yl)pyrazin-2-yl)isoxazol-5-yl)-3-methylbutanoyl)-N-((S)-1-(4-(4-methylthiazol-5-yl)phenyl)ethyl)pyrrolidine-2-carboxamide] | A (“A” indicates maximum degradation ≥75%) | < 0.01 | < 50 | > 1
Cc1ncsc1-c1ccc([C@H](C)NC(=O)[C@@H]2C[C@@H](O)CN2C(=O)[C@@H](c2cc(-c3ccc(N4CCC(c5sc6nnc(-c7ccccc7O)cc6c5C)CC4)cc3F)no2)C(C)C)cc1 [Compound 4, (2S,4R)-1-((R)-2-(3-(2-fluoro-4-(4-(3-(2-hydroxyphenyl)-5-methylthieno[2,3-c]pyridazin-6-yl)piperidin-1-yl)phenyl)isoxazol-5-yl)-3-methylbutanoyl)-4-hydroxy-N-((S)-1-(4-(4-methylthiazol-5-yl)phenyl)ethyl)pyrrolidine-2-carboxamide] | A (“A” indicates maximum degradation ≥75%) | < 0.01 | < 50 | > 1
Cc1nc(N2CCC(c3sc4nnc(-c5ccccc5O)cc4c3C)CC2)ccc1-c1noc([C@H](C(=O)N2C[C@H](O)C[C@H]2C(=O)N[C@@H](C)c2ccc(-c3scnc3C)cc2)C(C)C)c1C [Compound 92, (2S,4R)-4-hydroxy-1-((R)-2-(3-(6-(4-(3-(2-hydroxyphenyl)-5-methylthieno[2,3-c]pyridazin-6-yl)piperidin-1-yl)-2-methylpyridin-3-yl)-4-methylisoxazol-5-yl)-3-methylbutanoyl)-N-((S)-1-(4-(4-methylthiazol-5-yl)phenyl)ethyl)pyrrolidine-2-carboxamide] | A (“A” indicates maximum degradation ≥75%) | < 0.01 | > 75 | > 0.01
Cc1ncsc1-c1ccc([C@H](C)NC(=O)[C@@H]2C[C@@H](O)CN2C(=O)[C@@H](c2cc(N3CC[C@@H](c4sc5nnc(-c6ccccc6O)cc5c4C)C3)no2)C(C)C)cc1 [Compound 74, (2S,4R)-4-hydroxy-1-((R)-2-(3-((R)-3-(3-(2-hydroxyphenyl)-5-methylthieno[2,3-c]pyridazin-6-yl)pyrrolidin-1-yl)isoxazol-5-yl)-3-methylbutanoyl)-N-((S)-1-(4-(4-methylthiazol-5-yl)phenyl)ethyl)pyrrolidine-2-carboxamide] | A (“A” indicates maximum degradation ≥75%) | < 0.01 | > 50 | > 0.01
Cc1ncsc1-c1ccc([C@H](C)NC(=O)[C@@H]2C[C@@H](O)CN2C(=O)[C@@H](c2cc(-c3cnc(N4C[C@H]5C[C@@H]4C[C@H]5c4cc5cc(-c6ccccc6O)nnc5s4)nc3)no2)C(C)C)cc1 [Compound 13, (2S,4R)-4-hydroxy-1-((R)-2-(3-(2-((1R,4S,5R)-5-(3-(2-hydroxyphenyl)thieno[2,3-c]pyridazin-6-yl)-2-azabicyclo[2.2.1]heptan-2-yl)pyrimidin-5-yl)isoxazol-5-yl)-3-methylbutanoyl)-N-((S)-1-(4-(4-methylthiazol-5-yl)phenyl)ethyl)pyrrolidine-2-carboxamide] | C (“C” indicates maximum degradation <50%) | > 1 | < 50 | > 1
Cc1ncsc1-c1ccc([C@H](C)NC(=O)[C@@H]2C[C@@H](O)CN2C(=O)[C@@H](c2cc(N3CCC4(CC[C@@H](c5sc6nnc(-c7ccccc7O)cc6c5C)C4)CC3)no2)C(C)C)cc1 [Compound 77, (2S,4R)-4-hydroxy-1-((R)-2-(3-((R)-2-(3-(2-hydroxyphenyl)-5-methylthieno[2,3-c]pyridazin-6-yl)-8-azaspiro[4.5]decan-8-yl)isoxazol-5-yl)-3-methylbutanoyl)-N-((S)-1-(4-(4-methylthiazol-5-yl)phenyl)ethyl)pyrrolidine-2-carboxamide] | A (“A” indicates maximum degradation ≥75%) | < 0.01 | > 50 | > 0.1
Cc1ncsc1-c1ccc([C@H](C)NC(=O)[C@@H]2C[C@@H](O)CN2C(=O)C(c2cc(Oc3nccc(N4CCC(c5sc6nnc(-c7ccccc7O)cc6c5C)CC4)n3)no2)C(C)C)cc1 (single isomer, unassigned) [Compound 61, (2S,4R)-4-hydroxy-1-[(2R*)-2-{3-[(4-{4-[3-(2-hydroxyphenyl)-5-methylthieno[2,3-c]pyridazin-6-yl]piperidin-1-yl}pyrimidin-2-yl)oxy]-1,2-oxazol-5-yl}-3-methylbutanoyl]-N-[(1S)-1-[4-(4-methyl-1,3-thiazol-5-yl)phenyl]ethyl]pyrrolidine-2-carboxamide] | C (“C” indicates maximum degradation <50%) | > 1 | < 50 | > 1
Cc1ncsc1-c1ccc([C@H](C)NC(=O)[C@@H]2C[C@@H](O)CN2C(=O)[C@@H](c2cc(-c3cnc(N4CC[C@@H](c5sc6nnc(-c7ccccc7O)cc6c5C)C4)nc3)no2)C(C)C)cc1 [Compound 47, (2S,4R)-4-hydroxy-1-((R)-2-(3-(2-((R)-3-(3-(2-hydroxyphenyl)-5-methylthieno[2,3-c]pyridazin-6-yl)pyrrolidin-1-yl)pyrimidin-5-yl)isoxazol-5-yl)-3-methylbutanoyl)-N-((S)-1-(4-(4-methylthiazol-5-yl)phenyl)ethyl)pyrrolidine-2-carboxamide] | A (“A” indicates maximum degradation ≥75%) | > 0.01 | > 75 | < 0.01
Cc1cc(N2CC[C@H](c3sc4nnc(-c5ccccc5O)cc4c3C)C2)ncc1-c1cc([C@H](C(=O)N2C[C@H](O)C[C@H]2C(=O)N[C@@H](C)c2ccc(-c3scnc3C)cc2)C(C)C)on1 [Compound 97, (2S,4R)-4-hydroxy-1-((R)-2-(3-(6-((S)-3-(3-(2-hydroxyphenyl)-5-methylthieno[2,3-c]pyridazin-6-yl)pyrrolidin-1-yl)-4-methylpyridin-3-yl)isoxazol-5-yl)-3-methylbutanoyl)-N-((S)-1-(4-(4-methylthiazol-5-yl)phenyl)ethyl)pyrrolidine-2-carboxamide] | A (“A” indicates maximum degradation ≥75%) | > 0.01 | < 50 | –

From patent US20250304596A1, “PYRAZINE DERIVATIVES AND USES THEREOF” (FOGHORN THERAPEUTICS INC., priority 2022, published 2025)
